From paper PMC6323428, “Elucidation of the Intestinal Absorption Mechanism of Loganin in the Human Intestinal Caco-2 Cell Model” (Evidence-based Complementary and Alternative Medicine : eCAM, 2018)
Entries after “also recorded” stand apart in the source; their conditions may differ.

Key:
[1] = system: human intestinal Caco-2 cells; assay: MTT cytotoxicity (cell viability) assay; assay type: cell-based; conditions: for Survival Rates: n = 5, mean ± SD
Description: Cell viability was assessed using an MTT assay. Briefly, 0.1 mL of human intestinal Caco-2 cells was seeded onto 96-well plates at a density of 1×10^5 cells per well in a 96-well plate. The cells were grown in an atmosphere with 5% CO2 and 95% relative humidity over approximately 48 h. Subsequently, the culture medium was replaced with HBSS containing different concentrations of loganin (0.1-200 μM); the final concentration of dimethyl sulfoxide (DMSO) in HBSS remained at <1%. The negative control was HBSS containing 1% DMSO. […] Then, 0.2 mL of 0.5mg/mL MTT solution was added to each well and incubated for 4 h in dark. The medium was then removed, the MTT-formazan crystals were solubilized by incubating with 150 μL of DMSO with gentle shaking for 10 min, and absorbance was determined at 490 nm in a Multiskan Spectrum microplate reader (Thermo Labsystems, MA, USA). In each MTT assay, every sample was tested in five replicates and the viability of the nontreated control cells was arbitrarily defined as 100%.

P-glycoprotein (P-gp) [2] = molecular target: T1, P-glycoprotein (P-gp) (Homo sapiens, UniProt P08183); assay: Loganin transport across Caco-2 monolayers with P-gp inhibitor verapamil; assay type: in vitro ADME
T1 construct: endogenous in cells; host or cells: Caco-2 monolayers
T1 sequence (P08183 whole entry): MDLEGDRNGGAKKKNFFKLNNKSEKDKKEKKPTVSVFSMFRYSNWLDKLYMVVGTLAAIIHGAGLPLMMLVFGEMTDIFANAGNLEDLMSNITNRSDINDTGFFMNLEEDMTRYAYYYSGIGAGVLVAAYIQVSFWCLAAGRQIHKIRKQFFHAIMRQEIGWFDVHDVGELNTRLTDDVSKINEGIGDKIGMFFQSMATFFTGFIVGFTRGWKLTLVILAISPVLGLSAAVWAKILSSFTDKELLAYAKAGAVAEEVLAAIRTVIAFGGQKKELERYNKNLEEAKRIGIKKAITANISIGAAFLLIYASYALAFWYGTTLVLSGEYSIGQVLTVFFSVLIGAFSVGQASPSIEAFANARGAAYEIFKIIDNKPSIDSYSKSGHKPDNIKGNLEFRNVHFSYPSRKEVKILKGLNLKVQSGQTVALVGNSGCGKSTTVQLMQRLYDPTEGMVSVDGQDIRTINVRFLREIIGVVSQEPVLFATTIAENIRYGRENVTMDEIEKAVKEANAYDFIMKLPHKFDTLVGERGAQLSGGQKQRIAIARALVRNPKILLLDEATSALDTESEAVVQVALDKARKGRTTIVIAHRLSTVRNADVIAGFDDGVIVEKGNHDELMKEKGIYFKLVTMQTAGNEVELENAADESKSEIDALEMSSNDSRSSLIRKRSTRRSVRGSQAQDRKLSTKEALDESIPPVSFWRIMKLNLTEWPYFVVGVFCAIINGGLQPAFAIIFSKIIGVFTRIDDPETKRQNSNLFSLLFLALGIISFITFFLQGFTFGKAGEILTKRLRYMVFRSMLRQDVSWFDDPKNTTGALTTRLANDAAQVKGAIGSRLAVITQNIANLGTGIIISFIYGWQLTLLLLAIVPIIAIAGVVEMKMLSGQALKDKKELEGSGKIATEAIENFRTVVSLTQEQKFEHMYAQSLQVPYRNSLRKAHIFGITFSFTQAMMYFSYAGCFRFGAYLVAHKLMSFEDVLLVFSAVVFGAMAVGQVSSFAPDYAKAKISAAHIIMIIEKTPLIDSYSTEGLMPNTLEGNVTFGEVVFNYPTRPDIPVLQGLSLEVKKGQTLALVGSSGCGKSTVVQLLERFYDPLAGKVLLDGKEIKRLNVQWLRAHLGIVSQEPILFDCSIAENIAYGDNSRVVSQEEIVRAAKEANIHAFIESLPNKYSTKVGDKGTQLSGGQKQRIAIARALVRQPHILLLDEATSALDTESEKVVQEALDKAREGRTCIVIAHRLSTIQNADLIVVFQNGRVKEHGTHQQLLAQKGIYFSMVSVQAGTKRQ
Description: (§1) Before the experiments, the human intestinal Caco-2 cell monolayers were washed twice with HBSS medium (pH 7.4). The transport experiments were conducted by adding the drug solutions (containing 1% DMSO) to either the apical (AP, 0.5 mL) or basolateral side (BL, 1.0 mL), while the receiving chamber contained the corresponding volume of blank HBSS medium. The monolayers were incubated at 37°C, and 50 μL samples were taken at 15, 30, 45, 60, 90, and 120 min from the acceptor compartment, and the volume was then immediately replaced with50 μL of fresh, prewarmed blank HBSS. TEER measurements for assessing the membrane integrity took place before and after the experiment. The samples were frozen immediately and stored below −80°C before analysis.
(§2) Several efflux and influx transporters were investigated for their effects on the transport flux of loganin. One hundred μM verapamil was added to evaluate the selectivity of P-glycoprotein (P-gp); inhibiting the efflux by multidrug resistance-associated proteins (MRPs) was undertaken by adding 100μM MK571, 50μM benzbromarone, and 200μM indomethacin [21–23]; 25 μM apigenin was used to investigate breast cancer resistance protein (BCRP); 50 μM sodium vanadate and cimetidine were used as Na^+/K^+pump and […] inhibitors.
(§3) UPLC-MS/MS data acquisition was performed using Analyst 1.5.2 and MultiQuant 2.1.1 software (Applied Biosystems). The data were analyzed by SPSS Software. The apparent permeability coefficient (Papp) was calculated according to Papp = (dQ/dt)/(A·C0)
(§4) where dQ/dt is the steady-state flux (nmol/s), A is the surface area of the insert (cm^2); C0 is the initial concentration. The efflux ratio (P) was determined by calculating the ratio of PappBA versus PappAB as in(1) P=PappBA/PappAB Statistical analysis was performed with analysis of variance (ANOVA) after confirmation of normal distributions.

P-glycoprotein (P-gp) [3] = system: T2, P-glycoprotein (P-gp); assay: as above; assay type: in vitro ADME, human; conditions: human, Caco-2, pH 7.4; with verapamil 100 μM, loganin 20 μM, n = 3
T2 construct: endogenous in cells; host or cells: Caco-2 monolayers
Description: as §1, §2, §3, §4

MRP2 [4] = molecular target: T3, MRP2 (Homo sapiens, UniProt Q92887); assay: Loganin transport across Caco-2 monolayers with MRP2 inhibitor indomethacin; assay type: in vitro ADME; parameters: key to Modulatory effect: +: Indicates that the inhibitor has significant effect on the loganin transport
T3 construct: MRP2 and MRP3 were the main apically and basolaterally localized MRPs of the Caco-2 cells; endogenous in cells; host or cells: Caco-2 monolayers
T3 sequence (Q92887 whole entry): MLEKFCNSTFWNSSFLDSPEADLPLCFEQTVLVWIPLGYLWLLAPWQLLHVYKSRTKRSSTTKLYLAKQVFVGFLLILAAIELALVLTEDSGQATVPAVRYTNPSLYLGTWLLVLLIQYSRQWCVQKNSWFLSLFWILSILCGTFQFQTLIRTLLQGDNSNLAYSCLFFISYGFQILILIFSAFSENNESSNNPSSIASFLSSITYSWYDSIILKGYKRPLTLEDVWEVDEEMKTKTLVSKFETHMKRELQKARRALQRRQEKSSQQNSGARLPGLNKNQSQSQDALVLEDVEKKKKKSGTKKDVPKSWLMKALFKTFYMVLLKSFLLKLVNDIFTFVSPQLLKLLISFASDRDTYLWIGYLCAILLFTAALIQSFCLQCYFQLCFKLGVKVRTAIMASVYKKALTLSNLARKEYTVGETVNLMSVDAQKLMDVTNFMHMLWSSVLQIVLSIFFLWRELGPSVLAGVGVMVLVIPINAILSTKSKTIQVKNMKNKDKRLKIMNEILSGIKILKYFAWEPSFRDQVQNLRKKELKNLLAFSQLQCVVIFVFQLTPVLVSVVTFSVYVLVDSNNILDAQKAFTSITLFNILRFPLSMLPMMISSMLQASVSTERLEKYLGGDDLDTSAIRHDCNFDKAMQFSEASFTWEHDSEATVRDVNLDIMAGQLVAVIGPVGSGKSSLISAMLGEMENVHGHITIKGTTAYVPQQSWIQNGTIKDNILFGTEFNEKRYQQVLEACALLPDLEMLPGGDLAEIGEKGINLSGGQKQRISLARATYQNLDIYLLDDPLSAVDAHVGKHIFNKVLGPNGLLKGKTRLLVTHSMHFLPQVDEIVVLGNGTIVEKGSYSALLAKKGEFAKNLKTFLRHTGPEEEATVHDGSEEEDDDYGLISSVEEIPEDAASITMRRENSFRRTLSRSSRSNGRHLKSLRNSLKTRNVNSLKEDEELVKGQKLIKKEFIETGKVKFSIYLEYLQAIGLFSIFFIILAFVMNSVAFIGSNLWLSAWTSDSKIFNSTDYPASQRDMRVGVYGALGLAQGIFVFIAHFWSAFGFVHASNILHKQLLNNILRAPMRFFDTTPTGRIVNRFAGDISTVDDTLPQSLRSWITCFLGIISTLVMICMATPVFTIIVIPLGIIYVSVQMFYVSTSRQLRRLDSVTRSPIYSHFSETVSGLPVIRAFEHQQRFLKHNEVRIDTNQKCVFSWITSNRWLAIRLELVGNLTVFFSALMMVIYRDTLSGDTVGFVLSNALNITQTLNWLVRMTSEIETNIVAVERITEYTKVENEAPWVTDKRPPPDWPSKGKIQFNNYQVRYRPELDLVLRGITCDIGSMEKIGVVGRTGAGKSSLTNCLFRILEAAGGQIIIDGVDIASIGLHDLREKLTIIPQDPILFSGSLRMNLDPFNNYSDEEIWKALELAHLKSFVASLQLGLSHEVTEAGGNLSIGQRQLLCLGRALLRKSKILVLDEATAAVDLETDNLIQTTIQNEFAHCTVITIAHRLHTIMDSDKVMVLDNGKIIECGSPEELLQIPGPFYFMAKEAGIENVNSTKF
Description: as §1, §2, §3, §4

MRP2 [5] = system: T4, MRP2; assay: as above; assay type: in vitro ADME, human; parameters: key to Modulatory effect: +: Indicates that the inhibitor has significant effect on the loganin transport; conditions: human, Caco-2, pH 7.4; with indomethacin 200 μM, loganin 20 μM, n = 3
T4 construct: MRP2 and MRP3 were the main apically and basolaterally localized MRPs of the Caco-2 cells; endogenous in cells; host or cells: Caco-2 monolayers
Description: as §1, §2, §3, §4

MRP2, MRP3 = assay: Loganin transport across Caco-2 monolayers with MRP2/MRP3 inhibitor benzbromarone; assay type: in vitro ADME, human; parameters: key to Modulatory effect: +: Indicates that the inhibitor has significant effect on the loganin transport
Description: as §1, §2, §3, §4

Na+/K+ pump = assay: Loganin transport across Caco-2 monolayers with Na+/K+ pump inhibitor sodium vanadate; assay type: in vitro ADME, human; conditions: human
Description: as §1, §2, §3, §4

Na^+/K^+pump = assay: as above; assay type: in vitro ADME, human; conditions: pretreatment with 50 μM sodium vanadate
Description: as §1, §2, §3, §4

[6] = stated as well known, no reference given; cited from earlier work
[7] = human, Caco-2, pH 7.4, with benzbromarone 50 μM, loganin 20 μM, n = 3
[8] = Caco-2, pH 7.4, with sodium vanadate 50 μM, loganin 20 μM, n = 3

## COC(=O)C1=CO[C@@H](O[C@@H]2O[C@H](CO)[C@@H](O)[C@H](O)[C@H]2O)[C@@H]2[C@@H](C)[C@@H](O)C[C@H]12 [loganin, Loganin]
[1]; loganin 0.1 μM, MTT
  Survival Rates: 107.66±10.9%
[1]; loganin 1 μM, MTT
  Survival Rates: 108.73±25.4%
[1]; loganin 5 μM, MTT
  Survival Rates: 106.57±8.3%
[1]; loganin 10 μM, MTT
  Survival Rates: 106.22±10.9%
[1]; loganin 50 μM, MTT
  Survival Rates: 103.45±3.3%
[1]; loganin 100 μM, MTT
  Survival Rates: 101.45±6.5%
[1]; loganin 200 μM, MTT
  Inhibition of Caco-2 cells: 4.67%
  Survival Rates: 95.33±5.3%
[1]; loganin 0.1 to 100 μM, after 4 h exposure (so in the source)
  Toxicity to Caco-2 cells (in words): nontoxic
P-glycoprotein (P-gp) [2]; human, Caco-2, pH 7.4, with verapamil 100 μM, read-out: P (efflux ratio PappBA/PappAB)
  efflux ratio at 120 min, 20 μM: 0.84
P-glycoprotein (P-gp) [2]; judged from verapamil vs control
  Substrate of P-gp (in words): not the substrate; also recorded: not a substrate
P-glycoprotein (P-gp) [2]; verapamil 100 μM
  PappAB difference between verapamil and control groups (in words): insignificant
P-glycoprotein (P-gp) [2]; with verapamil 100 μM, loganin 20 μM, n = 3
  PappAB: 11.1±1.7 ×10^−6cm/s
P-glycoprotein (P-gp) [3]
  Papp B→A at 120 min, 20 μM: 9.3 ± 1.7 ×10⁻⁶ cm/s
MRP2 [4]; human, Caco-2, pH 7.4, with indomethacin 200 μM, read-out: P (efflux ratio PappBA/PappAB)
  efflux ratio at 120 min, 20 μM: 0.18
MRP2 [4]; with indomethacin 200 μM
  Modulatory effect: +
MRP2 [4]; with indomethacin, p < 0.01
  Increase of PappAB vs control: 2.0 fold
MRP2 [5]
  Papp A→B at 120 min, 20 μM: 24.7 ± 4.8 ×10⁻⁶ cm/s
  Papp B→A at 120 min, 20 μM: 4.4 ± 1.1 ×10⁻⁶ cm/s
MRP2, MRP3; human, Caco-2, pH 7.4, with benzbromarone 50 μM, read-out: P (efflux ratio PappBA/PappAB)
  efflux ratio at 120 min, 20 μM: 0.23
MRP2, MRP3; [7]
  Papp A→B at 120 min, 20 μM: 29.5 ± 5.9 ×10⁻⁶ cm/s
  Papp B→A at 120 min, 20 μM: 6.7 ± 0.9 ×10⁻⁶ cm/s
MRP2, MRP3; with benzbromarone 50 μM
  Modulatory effect: +
Na+/K+ pump; Caco-2, pH 7.4, with sodium vanadate 50 μM, read-out: P (efflux ratio PappBA/PappAB)
  efflux ratio at 120 min, 20 μM: 0.73
Na+/K+ pump; [8]
  Papp A→B at 120 min, 20 μM: 12.3 ± 0.7 ×10⁻⁶ cm/s
  Papp B→A at 120 min, 20 μM: 9 ± 1.1 ×10⁻⁶ cm/s
Na^+/K^+pump
  Effect on Papp values (in words): no significant effects
[6]
  Water solubility (in words): low
